Where two headings read alike, the source gives them in different places.
Legend:
[1] = sublingual tablet of Example 3, 10 mg epinephrine base, receptor pH 7.4, 37° C.
Procedure: The in-vitro permeability of the pharmaceutical compositions of Example 3 were tested. The tests were conducted using drug transdermal diffusion test instruments (Brand Huanghai, Model No. RJY-6B), Sartorius balances (Model SQP), an INESA pH meter (Model PHS-3E), a Thermo HPLC (UltiMate 3000 System, UV Wavelength: 205 nm), and Phenomenex Luna columns (5 μm C18 (2), 4.6×250 mm). The column temperature was 40° C. and the autosampler temperature was room temperature. The injection volume was 5 μL.
(§1) Mobile Phase A was prepared by weighing 4.0 g tetramethylammonium bisulfate (MERYER, Batch No. 77957139) and 1.1 sodium 1-heptasulfonate (Admas-beta, Batch No. P1343755), and transferring the materials to a flask. 2 mL of 0.1 mol/L EDTA solution (Brand: Sinopharm Chemical Reagent Co., Ltd., Batch No. 20150410) was added to the flask and the volume was adjusted to 950 mL using water. The solution was mixed and adjusted to a pH of 3.5 with 0.1N sodium hydroxide solution (Brand: Enox, Batch No. 20161201). Mobile Phase B was prepared using methanol. The isocratic elution was used in a proportion of A/B of 85/15. The run time was 10 minutes.
The in vitro diffusion of epinephrine salts were evaluated using Franz cells with an OD of 20 mm and reservoir volume of 7 mL. Dialysis membranes (Spectra/Por® dialysis membranes with 1,000 Da MWCO) were used to simulate sublingual mucous membrane in the vitro permeability tests. The assay content of the active components was detected in receiving pools. A receptor chamber with a magnetic stirrer was filled with phosphate buffer solution (pH 7.4) as the diffusion medium. The water bath was set at 37° C., and water was circulated in the Franz cells.
Each tablet was placed at the center of the donor chamber on the membrane at T0, and 2 mL of the artificial saliva (Brand: Biomart, Brand No. GL0305) was added to facilitate tablet disintegration and dissolution. Aliquots of 1 mL were withdrawn from the receptor chamber at 10, 30, 60, 90, and 120 min. The volumes withdrawn were replenished with fresh medium. Samples were transferred to HPLC vials for HPLC analysis.

[2] = Procedure: The stability of the pharmaceutical compositions of Example 3 were tested. The stability studies were conducted on packaged epinephrine salts at 25° C./RH 60% and 40° C./RH 75% conditions, as well as samples without packaging and exposed to light (4500 Lux) for one month. The appearance, assay content, and related substances were examined at 5, 7, 14 and 30 days.
The assay content was tested using Sartorius balances (Model SQP), an INESA pH meter (Model PHS-3E), a Thermo HPLC (UltiMate 3000 System, UV Wavelength: 205 nm), and Phenomenex Luna columns (5 μm C18 (2), 4.6×250 mm). The column temperature was 40° C., and the autosampler temperature was room temperature. The injection volume was 5 μL.
as §1
The assay content was analyzed by dissolving 20 mg of each sample to be examined in 50 mL of Mobile Phase A (0.4 mg/mL) as assay test solution. The sample was used and tested right after it was ready and was protected from light.
The purity was tested using Sartorius balances (Model SQP), an INESA pH meter (Model PHS-3E), a Thermo HPLC (UltiMate 3000 System, UV Wavelength: 205 nm), and PhenomenexSynergi columns (4 μm Polar-RP 80 A 250×4.6 mm). The column temperature was 30° C., and the autosampler temperature was room temperature. The injection volume was 5 μL.
Mobile Phase A was prepared by weighing 1.136 g of potassium dihydrogen orthophosphate (Brand: CNW, Batch No. A1040040) and 1.74 g of dipotassium hydrogen orthophosphate (Brand: Ourchem, Batch No. 20160219) and transferring into 1000 mL of water. The pH was adjusted to 3.0±0.05 with orthophosphoric acid (Brand: Ourchem, Batch No. 4112K060). The solution was filtered through a 0.45 μm membrane and degassed. Mobile Phase B was prepared using methanol. The run time was 50 minutes.
The purity was analyzed by dissolving 10 mg of each sample to be examined in 25 mL of Mobile Phase A (0.4 mg/mL) as purity and related substance test solution. The sample was used and tested right after it was ready and was protected from light.

[3] = light 4500 Lux, under air, 0 days
[4] = light 4500 Lux, under air, 5 days
[5] = light 4500 Lux, under air, 7 days
[6] = light 4500 Lux, under air, 14 days
[7] = light 4500 Lux, under air, 30 days

CNC[C@H](O)c1ccc(O)c(O)c1 [epinephrine bitartrate]
Diffusion content (%) 120 min [1]: 67.8%
Appearance ([2]; 25° C./60% RH, 0 days): Off-white
Content (%) ([2]; 25° C./60% RH, 0 days): 100.00%
Related substance (%) ([2]; 25° C./60% RH, 0 days): 0.08%
Appearance ([2]; 25° C./60% RH, 5 days): Off-white
Content (%) ([2]; 25° C./60% RH, 5 days): 100.05%
Related substance (%) ([2]; 25° C./60% RH, 5 days): 0.08%
Appearance ([2]; 25° C./60% RH, 7 days): Off-white
Content (%) ([2]; 25° C./60% RH, 7 days): 100.83%
Related substance (%) ([2]; 25° C./60% RH, 7 days): 0.08%
Appearance ([2]; 25° C./60% RH, 14 days): Off-white
Content (%) ([2]; 25° C./60% RH, 14 days): 99.82%
Related substance (%) ([2]; 25° C./60% RH, 14 days): 0.09%
Appearance ([2]; 25° C./60% RH, 30 days): Off-white
Content (%) ([2]; 25° C./60% RH, 30 days): 100.33%
Related substance (%) ([2]; 25° C./60% RH, 30 days): 0.09%
Appearance ([2]; 40° C./75% RH, 0 days): Off-white
Content (%) ([2]; 40° C./75% RH, 0 days): 100.00%
Related substance (%) ([2]; 40° C./75% RH, 0 days): 0.08%
Appearance ([2]; 40° C./75% RH, 5 days): Off-white
Content (%) ([2]; 40° C./75% RH, 5 days): 100.43%
Related substance (%) ([2]; 40° C./75% RH, 5 days): 0.09%
Appearance ([2]; 40° C./75% RH, 7 days): Off-white
Content (%) ([2]; 40° C./75% RH, 7 days): 100.84%
Related substance (%) ([2]; 40° C./75% RH, 7 days): 0.09%
Appearance ([2]; 40° C./75% RH, 14 days): Off-white
Content (%) ([2]; 40° C./75% RH, 14 days): 100.17%
Related substance (%) ([2]; 40° C./75% RH, 14 days): 0.09%
Appearance ([2]; 40° C./75% RH, 30 days): Off-white
Content (%) ([2]; 40° C./75% RH, 30 days): 100.96%
Related substance (%) ([2]; 40° C./75% RH, 30 days): 0.10%
Appearance [2, 3]: Off-white
Content (%) [2, 3]: 100.00%
Related substance (%) [2, 3]: 0.08%
Appearance [2, 4]: Off-white
Content (%) [2, 4]: 99.71%
Related substance (%) [2, 4]: 0.10%
Appearance [2, 5]: Off-white
Content (%) [2, 5]: 102.34%
Related substance (%) [2, 5]: 0.10%
Appearance [2, 6]: Off-white
Content (%) [2, 6]: 100.43%
Related substance (%) [2, 6]: 0.09%
Appearance [2, 7]: Off-white
Content (%) [2, 7]: 100.39%
Related substance (%) [2, 7]: 0.09%

CNC[C@H](O)c1ccc(O)c(O)c1 [epinephrine malonate]
Diffusion content (%) 120 min [1]: 57.5%
Appearance ([2]; 25° C./60% RH, 0 days): Off-white
Content (%) ([2]; 25° C./60% RH, 0 days): 100.00%
Related substance (%) ([2]; 25° C./60% RH, 0 days): 0.01%
Appearance ([2]; 25° C./60% RH, 5 days): Off-white
Content (%) ([2]; 25° C./60% RH, 5 days): 99.94%
Related substance (%) ([2]; 25° C./60% RH, 5 days): 0.02%
Appearance ([2]; 25° C./60% RH, 7 days): Off-white
Content (%) ([2]; 25° C./60% RH, 7 days): 99.62%
Related substance (%) ([2]; 25° C./60% RH, 7 days): 0.02%
Appearance ([2]; 25° C./60% RH, 14 days): Off-white
Content (%) ([2]; 25° C./60% RH, 14 days): 98.81%
Related substance (%) ([2]; 25° C./60% RH, 14 days): 0.05%
Appearance ([2]; 25° C./60% RH, 30 days): Off-white
Content (%) ([2]; 25° C./60% RH, 30 days): 100.64%
Related substance (%) ([2]; 25° C./60% RH, 30 days): 0.05%
Appearance ([2]; 40° C./75% RH, 0 days): Off-white
Content (%) ([2]; 40° C./75% RH, 0 days): 100.00%
Related substance (%) ([2]; 40° C./75% RH, 0 days): 0.01%
Appearance ([2]; 40° C./75% RH, 5 days): Off-white
Content (%) ([2]; 40° C./75% RH, 5 days): 100.25%
Related substance (%) ([2]; 40° C./75% RH, 5 days): 0.03%
Appearance ([2]; 40° C./75% RH, 7 days): Off-white
Content (%) ([2]; 40° C./75% RH, 7 days): 101.64%
Related substance (%) ([2]; 40° C./75% RH, 7 days): 0.02%
Appearance ([2]; 40° C./75% RH, 14 days): Off-white
Content (%) ([2]; 40° C./75% RH, 14 days): 99.63%
Related substance (%) ([2]; 40° C./75% RH, 14 days): 0.08%
Appearance ([2]; 40° C./75% RH, 30 days): Off-white
Content (%) ([2]; 40° C./75% RH, 30 days): 99.87%
Related substance (%) ([2]; 40° C./75% RH, 30 days): 0.11%
Appearance [2, 3]: Off-white
Content (%) [2, 3]: 100.00%
Related substance (%) [2, 3]: 0.01%
Appearance [2, 4]: Off-white
Content (%) [2, 4]: 99.81%
Related substance (%) [2, 4]: 0.03%
Appearance [2, 5]: Off-white
Content (%) [2, 5]: 98.76%
Related substance (%) [2, 5]: 0.03%
Appearance [2, 6]: Off-white
Content (%) [2, 6]: 99.83%
Related substance (%) [2, 6]: 0.06%
Appearance [2, 7]: Off-white
Content (%) [2, 7]: 100.64%
Related substance (%) [2, 7]: 0.04%

epinephrine maleate
Diffusion content (%) 120 min [1]: 63.5%
Appearance ([2]; 25° C./60% RH, 0 days): Off-white
Content (%) ([2]; 25° C./60% RH, 0 days): 100.00%
Related substance (%) ([2]; 25° C./60% RH, 0 days): 0.17%
Appearance ([2]; 25° C./60% RH, 5 days): Off-white
Content (%) ([2]; 25° C./60% RH, 5 days): 99.50%
Related substance (%) ([2]; 25° C./60% RH, 5 days): 0.18%
Appearance ([2]; 25° C./60% RH, 7 days): Off-white
Content (%) ([2]; 25° C./60% RH, 7 days): 99.97%
Related substance (%) ([2]; 25° C./60% RH, 7 days): 0.17%
Appearance ([2]; 25° C./60% RH, 14 days): Off-white
Content (%) ([2]; 25° C./60% RH, 14 days): 99.43%
Related substance (%) ([2]; 25° C./60% RH, 14 days): 0.16%
Appearance ([2]; 25° C./60% RH, 30 days): Off-white
Content (%) ([2]; 25° C./60% RH, 30 days): 100.69%
Related substance (%) ([2]; 25° C./60% RH, 30 days): 0.17%
Appearance ([2]; 40° C./75% RH, 0 days): Off-white
Content (%) ([2]; 40° C./75% RH, 0 days): 100.00%
Related substance (%) ([2]; 40° C./75% RH, 0 days): 0.17%
Appearance ([2]; 40° C./75% RH, 5 days): Off-white
Content (%) ([2]; 40° C./75% RH, 5 days): 99.30%
Related substance (%) ([2]; 40° C./75% RH, 5 days): 0.17%
Appearance ([2]; 40° C./75% RH, 7 days): Off-white
Content (%) ([2]; 40° C./75% RH, 7 days): 97.76%
Related substance (%) ([2]; 40° C./75% RH, 7 days): 0.18%
Appearance ([2]; 40° C./75% RH, 14 days): Off-white
Content (%) ([2]; 40° C./75% RH, 14 days): 99.24%
Related substance (%) ([2]; 40° C./75% RH, 14 days): 0.16%
Appearance ([2]; 40° C./75% RH, 30 days): Off-white
Content (%) ([2]; 40° C./75% RH, 30 days): 100.19%
Related substance (%) ([2]; 40° C./75% RH, 30 days): 0.16%
Appearance [2, 3]: Off-white
Content (%) [2, 3]: 100.00%
Related substance (%) [2, 3]: 0.17%
Appearance [2, 4]: Off-white
Content (%) [2, 4]: 99.86%
Related substance (%) [2, 4]: 0.18%
Appearance [2, 5]: Off-white
Content (%) [2, 5]: 100.61%
Related substance (%) [2, 5]: 0.19%
Appearance [2, 6]: Off-white
Content (%) [2, 6]: 99.84%
Related substance (%) [2, 6]: 0.16%
Appearance [2, 7]: Off-white
Content (%) [2, 7]: 100.47%
Related substance (%) [2, 7]: 0.17%

Source: patent publication US11505521B2 (Biothea Pharma, Inc., priority 2018, dated 2022)
